Results as given in patent US3979508A, “Compositions and methods therewith for penicillin hypersensitivity detection” (Kremers-Urban Company, priority 1975, dated 1976).
Values joined by “and” are separate entries in the source; they are usually repeats but may differ in a detail not shown here. Equal entries are not always repeated.

Tested on: penicillin hypersensitivity (patients)
Test: Clinical evaluation by 26 investigators: scratch/intradermal skin tests with PPL and Penicillin G (Tables IV-VII, IX-XI)
Assay type: in vivo, human
Conditions: for TOTAL (+) No. / TOTAL (+) Percent of total positive: skin reactive penicillin allergy patients
Experimental: Twenty-six clinical investigators contributed a total of 1160 cases to the evaluation. Patients were tested according to a protocol as follows:
1. All patients being subjected to allergy investigation were to be tested for penicillin hypersensitivity. Two preparations were to be used. These are:
2. Penicillin G (Benzyl Penicillin) in a concentration of 10,000 units per cc.
For maximum safety, it was recommended that the tests first be done by the scratch technique. Intradermal tests were then to be done on those showing negative scratch tests. In cases where the penicillin sensitivity was suspected to be of a violent character, more dilute reagents were recommended at the discretion of the individual investigator.
A uniform technique was recommended for the performance of the intradermal tests. Only a minimal amount of testing reagent was to be injected so as to make a barely discernible intradermal bleb. The amount necessary for this injection is about 0.01 to 0.03 cc. It was recognized that the intrepretation of the test results is an important matter. The reactions were to be recorded in terms of (1) the time required for the appearance of a reaction, (2) the size of erythema and (3) the size of whealing. These were to be recorded as actual measurements. Some objective measurement of dermographism was also to be recorded.
It was also contemplated that all patients who were to be treated with penicillin be tested as recommended above, even though they had previously received penicillin with impunity.
A comprehensive clinical history was takan on each patient with particular regard to previous penicillin therapy, and reaction.
In order to properly analyze the data on such a large number of patients, a data processing system was utilized.
Table IV summarizes the skin test results on all patients, without regard to other specific factors. […] It will also be noted that a significant number of patients reacted only to PPL, and another group only to Pen G. Therefore, to detect the maximum number of reactors, both test reagents would be required. A technical problem was classification of the ambiguous or borderline reactors, particularly those showing only erythema. Attempts to correlate the appearance of the erythematous flare without wheal formation with a history of penicillin hypersensitivity were unsuccessful. In some instances, however, erythema without wheal did appear to be associated with hypersensitivity to the antibiotic. The time of development of erythema without wheal varied widely from a few minutes to more than 7 days which also made its importance questionable. as a diagnostic sign. For these reasons erythema alone responses were counted with the negatives. In some instances, however, data will be presented in which erythema without wheal are counted as positive responses (figures appearing in parentheses).

[1] = Group I (675 patients): penicillin Rx, no hypersensitivity, erythema only counted as negative
[2] = Group I (675 patients): penicillin Rx, no hypersensitivity, parentheses: erythema only (ambiguous) counted as positive
[3] = Group II (352 patients): penicillin Rx & hypersensitive, erythema only counted as negative
[4] = Group II (352 patients): penicillin Rx & hypersensitive, parentheses: erythema only (ambiguous) counted as positive
[5] = Group III (70 patients): no penicillin Rx in past, erythema only counted as negative
[6] = Group III (70 patients): no penicillin Rx in past, parentheses: erythema only (ambiguous) counted as positive
[7] = Group IV (56 patients): no data, erythema only counted as negative
[8] = Group IV (56 patients): no data, parentheses: erythema only (ambiguous) counted as positive
[9] = TOTALS (1153 patients), erythema only counted as negative
[10] = TOTALS (1153 patients), parentheses: erythema only (ambiguous) counted as positive
[11] = TOTALS, all patients (1153 tested), erythema only counted as negative
[12] = TOTALS, all patients (1153 tested), parentheses: erythema only (ambiguous) counted as positive
[13] = all patients (1153 tested), erythema only counted as negative
[14] = all patients (1153 tested), parentheses: erythema only (ambiguous) counted as positive
[15] = history of therapy: Multi Courses (177 tested)
[16] = history of therapy: One Course (249 tested)
[17] = history of therapy: One Dose (152 tested)
[18] = history of therapy: TOTALS (578 tested)
[19] = penicillin reaction between 30 minutes and 24 hours post therapy (87 patients), erythema only counted as negative
[20] = penicillin reaction between 30 minutes and 24 hours post therapy (87 patients), parentheses: erythema only (ambiguous) counted as positive
[21] = penicillin reaction more than 24 hours post therapy (144 patients), erythema only counted as negative
[22] = penicillin reaction more than 24 hours post therapy (144 patients), parentheses: erythema only (ambiguous) counted as positive
[23] = penicillin reaction within 30 minutes post therapy (56 patients), erythema only counted as negative
[24] = penicillin reaction within 30 minutes post therapy (56 patients), parentheses: erythema only (ambiguous) counted as positive
[25] = reason for testing: "Penicillin" (240 tested)
[26] = reason for testing: Other Substances (463 tested)
[27] = reaction between 30 minutes and 24 hours post therapy, erythema only counted as negative
[28] = reaction between 30 minutes and 24 hours post therapy, parentheses: erythema only (ambiguous) counted as positive
[29] = reaction more than 24 hours post therapy, parentheses: erythema only (ambiguous) counted as positive
[30] = reaction within 30 minutes post therapy, parentheses: erythema only (ambiguous) counted as positive
[31] = type of hypersensitivity reaction: Skin (309 tested)
[32] = type of hypersensitivity reaction: Visceral (43 tested)

penicilloyl-poly-L-lysine [PPL]
Skin Test (+) No. [1]: 36 | Skin Test (+) Percent [1]: 5.3% | Skin Test (-) No. [1]: 639 | Skin Test (-) Percent [1]: 94.7% | Skin Test (+) No. [2]: 78 | Skin Test (+) Percent [2]: 11.6% | Skin Test (-) No. [2]: 597 | Skin Test (-) Percent [2]: 88.4% | Skin Test (+) No. [3]: 73 | Skin Test (+) Percent [3]: 20.7% | Skin Test (-) No. [3]: 279 | Skin Test (-) Percent [3]: 79.3% | Skin Test (+) No. [4]: 97 | Skin Test (+) Percent [4]: 27.6% | Skin Test (-) No. [4]: 255 | Skin Test (-) Percent [4]: 72.4% | Skin Test (+) No. [5]: 1 | Skin Test (+) Percent [5]: 1.4% | Skin Test (-) No. [5]: 69 | Skin Test (-) Percent [5]: 98.6% | Skin Test (+) No. [6]: 6 | Skin Test (+) Percent [6]: 8.6% | Skin Test (-) No. [6]: 64 | Skin Test (-) Percent [6]: 91.4% | Skin Test (+) No. [7]: 3 | Skin Test (+) Percent [7]: 5.4% | Skin Test (-) No. [7]: 53 | Skin Test (-) Percent [7]: 94.6% | Skin Test (+) No. [8]: 4 | Skin Test (+) Percent [8]: 7.1% | Skin Test (-) No. [8]: 52 | Skin Test (-) Percent [8]: 92.9% | SKIN TEST RESPONSE No. (No reactions (675 tested)): 36 | SKIN TEST RESPONSE Percent (No reactions (675 tested)): 5.3% | Skin Test (-) No. [9]: 1040 | Skin Test (-) Percent [9]: 90.2% | Skin Test (-) No. [10]: 968 | Skin Test (-) Percent [10]: 84.0% | Skin Test (+) No. [11]: 113 | Skin Test (+) Percent [11]: 9.8% | Skin Test (+) No. [12]: 185 | Skin Test (+) Percent [12]: 16.1% and 16.0% | PPL (+) PG (+) No. [13]: 34 | PPL (+) PG (+) Percent [13]: 3.0% | PPL (+) PG (-) No. [13]: 79 | PPL (+) PG (-) Percent [13]: 6.9% | PPL (-) PG (+) No. [13]: 38 | PPL (-) PG (+) Percent [13]: 3.3% | PPL (-) PG (-) No. [13]: 1002 | PPL (-) PG (-) Percent [13]: 86.9% | PPL (+) PG (+) No. [14]: 80 | PPL (+) PG (+) Percent [14]: 6.9% | PPL (+) PG (-) No. [14]: 105 | PPL (+) PG (-) Percent [14]: 9.1% | PPL (-) PG (+) No. [14]: 49 | PPL (-) PG (+) Percent [14]: 4.3% | PPL (-) PG (-) No. [14]: 919 | PPL (-) PG (-) Percent [14]: 79.7% | positive skin tests, patients positive/patients in group (delayed (after 24 hours) group): 24/144 | positive skin tests, percent of group (delayed (after 24 hours) group, 144 patients): 16.7% | Skin Reactions PPL- / PEN G- No. [15]: 14 | Skin Reactions PPL- / PEN G- Percent [15]: 7.9% | Skin Reactions PPL- / PEN G- No. [16]: 14 | Skin Reactions PPL- / PEN G- Percent [16]: 5.6% | Skin Reactions PPL- / PEN G- No. [17]: 24 | Skin Reactions PPL- / PEN G- Percent [17]: 15.8% | Skin Reactions PPL- / PEN G- No. [18]: 52 | Skin Reactions PPL- / PEN G- Percent [18]: 9.0% | positive skin tests, patients positive/patients in group (immediate reacting group (within 30 minutes)): 26/56 | positive skin tests, percent of group (immediate reacting group (within 30 minutes), 56 patients): 46% and 46.5% | percent of skin-test positive patients that would be missed if only this reagent were used as skin test antigen (immediate reactor group): 16% | PL (+) PG (+) No. [19]: 12 | PL (+) PG (+) Percent [19]: 13.8% | PPL (+) PG (-) No. [19]: 9 | PPL (+) PG (-) Percent [19]: 10.4% | PPL (-) PG (+) No. [19]: 5 | PPL (-) PG (+) Percent [19]: 5.7% | PPL (-) PG (-) No. [19]: 61 | PPL (-) PG (-) Percent [19]: 70.0% | PL (+) PG (+) No. [20]: 14 | PL (+) PG (+) Percent [20]: 16.1% | PPL (+) PG (-) No. [20]: 10 | PPL (+) PG (-) Percent [20]: 11.5% | PPL (-) PG (+) No. [20]: 7 | PPL (-) PG (+) Percent [20]: 8.0% | PPL (-) PG (-) No. [20]: 56 | PPL (-) PG (-) Percent [20]: 64.4% | PL (+) PG (+) No. [21]: 8 | PL (+) PG (+) Percent [21]: 5.6% | PPL (+) PG (-) No. [21]: 16 | PPL (+) PG (-) Percent [21]: 11.1% | PPL (-) PG (+) No. [21]: 9 | PPL (-) PG (+) Percent [21]: 6.2% | PPL (-) PG (-) No. [21]: 111 | PPL (-) PG (-) Percent [21]: 77.1% | PL (+) PG (+) No. [22]: 11 | PL (+) PG (+) Percent [22]: 7.6% | PPL (+) PG (-) No. [22]: 22 | PPL (+) PG (-) Percent [22]: 15.3% | PPL (-) PG (+) No. [22]: 11 | PPL (-) PG (+) Percent [22]: 7.6% | PPL (-) PG (-) No. [22]: 100 | PPL (-) PG (-) Percent [22]: 69.4% | PL (+) PG (+) No. [23]: 12 | PL (+) PG (+) Percent [23]: 21.4% | PPL (+) PG (-) No. [23]: 14 | PPL (+) PG (-) Percent [23]: 25.0% | PPL (-) PG (+) No. [23]: 5 | PPL (-) PG (+) Percent [23]: 8.9% | PPL (-) PG (-) No. [23]: 25 | PPL (-) PG (-) Percent [23]: 44.6% | PL (+) PG (+) No. [24]: 15 | PL (+) PG (+) Percent [24]: 26.8% | PPL (+) PG (-) No. [24]: 16 | PPL (+) PG (-) Percent [24]: 28.6% | PPL (-) PG (+) No. [24]: 5 | PPL (-) PG (+) Percent [24]: 8.9% | PPL (-) PG (-) No. [24]: 20 | PPL (-) PG (-) Percent [24]: 35.7% | Skin Test (+) No. [25]: 31 | Skin Test (+) Percent [25]: 12.9% | Skin Test (+) No. [26]: 21 | Skin Test (+) Percent [26]: 4.5% | TOTAL (+) No. [27]: 21 | TOTAL (+) Percent of total positive [27]: 80.8% | TOTAL (+) No. [28]: 24 | TOTAL (+) Percent of total positive [28]: 77.4% | TOTAL (+) No. (reaction more than 24 hours post therapy, erythema only counted as negative): 24 | TOTAL (+) No. [29]: 33 | TOTAL (+) Percent of total positive [29]: 75.0% | TOTAL (+) No. (reaction within 30 minutes post therapy, erythema only counted as negative): 26 | TOTAL (+) No. [30]: 31 | TOTAL (+) Percent of total positive [30]: 86.1% | SKIN TEST RESPONSE No. [31]: 66 | SKIN TEST RESPONSE Percent [31]: 21.4% | SKIN TEST RESPONSE No. [32]: 10 | SKIN TEST RESPONSE Percent [32]: 23.3%
